Measurements: patent US20060058383A1 (priority 2004, published 2006)
pIC50: −log10 of the molar value.

What was measured:
HL-60/AR cells [1] = test: MTT cytotoxicity, drug-resistant clone versus parental cells; assay type: cell-based, human; settings: MTT assay
Description: HL-60 cell line and its drug-resistant clone HL-60/AR were incubated with the indicated concentrations of doxorubicin, vincristine, and 3-BrPA for 72 h. Cytotoxicity was measured by MTT assay. […] Based on the teachings provided herein, studies may be performed to determine the sensitivity of HL-60/AR cells to Glycolycin.
Ara-C, a drug commonly used in the frontline treatment of leukemia, was used in parallel experiments. Cytotoxicity was measured by MTT assay.

[2] = tested on: respiration-deficient subclone HL-60/C6F cells; test: Depletion of cellular ATP pool (PCA extraction, HPLC); assay type: cell-based, human; settings: 12 h incubation
Description: (§1) Cells were incubated with the indicated concentrations of S-Glycolycin or 3-BrPA for 12 h. Cellular ATP was extracted by 0.4 N PCA, neutralized with KOH, and quantified by HPLC analysis. […] Incubation of cells with 0.03 mM S-Glycolycin completely depleted cellular ATP in both cell lines, while it required a 10-fold greater concentration (0.3 mM) of 3-BrPA to achieve the same degree of ATP depletion.

HL-60 cells [3] = test: Induction of apoptosis, annexin-V/PI flow cytometry; assay type: cell-based, human; settings: 30 μM; 24 h
Description: HL-60 cells were incubated with the indicated concentrations of S-Glycolycin or 3-BrPA for 24 h. Apoptosis was measured by double staining with annexin-V and PI, followed by flow cytometry analysis. […] Incubation of HL-60 cells with 30 μM of S-Glycolycin caused more 90% cells to undergo apoptosis in 24 h, whereas the same concentration of 3-BrPA killed less than 20% of the cells within the same time period.

[4] = tested on: human leukemia HL-60 cell line; test: Depletion of cellular ATP pool (PCA extraction, HPLC); assay type: cell-based; settings: for concentration that completely depleted cellular ATP: 12 h incubation, HL-60
Description: as §1

HL-60 cells [5] = test: MTT assay, in vitro cytotoxic activity before and after storage of drug solutions; assay type: cell-based, human; settings: pH 7.0, 72 h drug incubation
[6] = Stability of neutral drug solution on storage
HL-60/AR cells [7] = test: Combination cytotoxicity in multi drug resistant cells, annexin-V/PI assay 24 h; assay type: cell-based, human; settings: multi drug resistant HL-60/AR cells
[8] = tested on: human colon cancer (HCT116) cells; test: Sensitivity under hypoxic versus normoxic conditions, annexin-V/PI assay; assay type: cell-based
From the text: (§2) Cancer cells in solid tumors have to adapt to the hypoxia environment due to insufficient blood supply. Under hypoxia conditions, cancer cells use the glycolytic pathway to generate ATP without consuming oxygen. This metabolic adaptation also renders cancer cells relatively resistant to anticancer agents and radiation therapy, partially due to up-regulation of expression of cell survival factors such as HIF-1α. […] However, because under hypoxia condition cancer cells dependent on glycolysis for generation of ATP, it is contemplated that such cancer cells are vulnerable to glycolytic inhibition by Glycolycin. […] Thus, it is envisioned that Glycolycin can be use for effective treatment of many solid tumors, either as a single agent or in combination with other anticancer agents.

[9] = tested on: respiration-deficient clones HL-c6/ρ^0-C6F and Raji-C6; test: Cytotoxicity in respiration-deficient clones, annexin-V/PI and colony formation; assay type: cell-based, human
Description: Initial studies have been performed to test the sensitivity of respiration-competent leukemia cells (parental HL-60) and lymphoma cells (parental Raji) in comparison with their respiration-deficient clones HL-c6/ρ^0-C6F and Raji-C6. The mitochondria-defect cell lines were established by the present inventors and others (Pelicano et al., 2003). Cells were incubated with the indicated concentrations of 3-BrPA, and cytotoxicity was measured by two different assays: annexin-V/PI staining and colony formation assay.

[10] = tested on: human colon cancer cells (HCT116); test: Colony formation under hypoxic conditions, with radiation; assay type: cell-based
From the text: It is known in the art that under hypoxic conditions, cancer cells become less sensitive to radiation therapy, partially due to up-regulation of expression of survival factors and less generation of free radicals without oxygen. However, under hypoxic conditions cancer cells depend on glycolysis for generation of ATP, which is the essential energy source for repair of the DNA damage caused by radiation. Thus, it is contemplated that Glycolycin can effectively deplete cellular ATP pool under hypoxic conditions and enhance the therapeutic activity of radiation. […] Combination of Glycolycin and radiation almost completely killed all cells plated (up to 200,000 cells/well). Thus, Glycolycin is an effective agent to enhance the effectiveness of radiotherapy.

primary CLL cells = test: MTT assay in primary leukemia cells; assay type: cell-based, human
[11] = tested on: BAD phosphorylation (Ser112) in HL-60 cells; test: BAD phosphorylation at Ser112, western blot; assay type: cell-based, human
Description: HL-60 cells were incubated with the indicated concentrations of each compound for 3 h. BAD and its phosphorylation at Ser112 were measured by western blot analysis, using the respective antibodies. β-Actin was also blotted as the protein loading control.
A time- and dose-dependent effect of S-Glycolycin on the expression level of pro-apoptotic factor BAD and its phosphorylation at Ser112 is provided in FIG. 18. HL-60 cells were incubated with the indicated concentrations of S-Glycolycin for various times. Total BAD protein and its phosphorylation at Ser112 were measured by western blot analysis using the respective antibodies. β-actin was also blotted as the protein loading control. […] Note that severe ATP depletion can be induced by S-Glycolycin at 30-50 μM, but not at 10 μM (FIG. 15).

[12] = tested on: HL-60 cells with high Bcl-2 expression; test: MTT growth inhibition of Bcl-2 transfected cells; assay type: cell-based, human; settings: MTT assay
Description: Cell growth inhibition was measured by MTT assay.
Increased expression of the anti-apoptotic molecule Bcl-2 has been associated with drug resistance in cancer cells. The over-expression of Bcl-2 in HL-60 cells was […] against the cytotoxic effect of S-Glycolycin. […] Thus, Glycolycin may be used to overcome drug resistance due to Bcl-2 over expression.

[13] = tested on: colon cancer cells without p53 expression; test: Sensitivity of colon cancer cells without p53; assay type: cell-based, human; settings: separate experiment
Description: (§3) The effect of Glycolycin on human colon cancer cells (HCT116) and human brain tumor cells (U87MG) were tested using MTT assays for a 72 hour incubation. […] The IC50 value of S-Glycolycin for brain tumor U87MG cells is approximately 30 μM. […] This is of clinical significance, since the majority of human cancers are defective in p53 function and show reduced response to radiotherapy and certain anticancer agents.

[14] = tested on: human brain tumor cells (U87MG); test: MTT assay, 72 hour incubation; assay type: cell-based; settings: U-87 MG
Description: as §3

[15] = tested on: human colon cancer cells (HCT116); test: MTT assay, 72 hour incubation; assay type: cell-based; settings: HCT-116
Description: as §3

[16] = tested on: human lymphoma cells (Raji); test: Sensitivity under hypoxic versus normoxic conditions, annexin-V/PI assay 24 h; assay type: cell-based; settings: 40 μM
Description: (Annexin-V/PI assay, 24 h)
as §2

parental HL-60 cells = test: Effect of glutamine on cytotoxic activity, apoptosis at 24 h; assay type: cell-based, human; settings: 1 mM glutamine for 2 h
Description: (§4) The effect of glutamine on the cytotoxic activity of S-Glycolycin in wild-type HL-60 cells and respiration-deficient C6F cells was compared. Parental HL-60 cells were incubated with the indicated concentrations of S-Glycolycin in the presence or absence of 1 mM glutamine for 2 h, washed, and re-cultured in fresh medium. Apoptosis was measured at 24 h. […] In FIG. 26, the respiration-deficient cells (HL-60-C6F) were incubated with the indicated concentrations of S-Glycolycin in the presence or absence of 1 mM glutamine for 2 h, washed, and re-cultured in fresh medium. Apoptosis was measured at 24 h. Thus, glutamine supplement offers some degree of protection for cells with competent mitochondrial function.

[17] = tested on: respiration-deficient C6F cells (HL-60-C6F); test: as above; assay type: cell-based, human; settings: 1 mM glutamine for 2 h
Description: as §4

[18] = tested on: BAD phosphorylation in primary CLL cells; test: BAD dephosphorylation in primary leukemia cells, western blot; assay type: cell-based, human

SMILES: O=C(O)C(=O)CBr [3-BrPA, 3-bromo-2-oxopropionic acid, reference compound]
- sensitivity of HL-60/AR compared to parental HL-60 cells (HL-60/AR cells [1]): equally sensitive
- concentration that completely depleted cellular ATP [2]: 0.3 mM
- cells undergoing apoptosis (HL-60 cells [3]): less than 20%
- concentration that completely depleted cellular ATP [4]: 0.3 mM
- % Cell Survival (HL-60 cells [5]; 5 μM, fresh drug solution): 99.8 ± 1.9%
- % Cell Survival (HL-60 cells [5]; 10 μM, drug stored for 3 weeks at 4° C.): 70.0 ± 9.8%
- % Cell Survival (HL-60 cells [5]; 10 μM, fresh drug solution): 59.2 ± 4.1%
- % Cell Survival (HL-60 cells [5]; 30 μM, drug stored for 3 weeks at 4° C.): 87.0 ± 23%
- % Cell Survival (HL-60 cells [5]; 30 μM, fresh drug solution): 3.0 ± 1.4%
- % Cell Survival (HL-60 cells [5]; 100 μM, drug stored for 3 weeks at 4° C.): 2.3 ± 0.3%
- % Cell Survival (HL-60 cells [5]; 100 μM, fresh drug solution): 2.5 ± 0.8%
- activity of solution after storage ([6]; kept at 4° C. for 3 weeks): substantial loss of activity
- stability of solution at neutral pH ([6]; pH 7.0, kept at 4° C.): discoloration
- effect of combination with ara-C or doxorubicin on cytotoxic activity (HL-60/AR cells [7]): significantly enhance the cytotoxic activity
- sensitivity under hypoxic versus normoxic conditions [8]: significantly more sensitive
- sensitivity of mitochondria-defect cells compared to parental cells [9]: more sensitive

SMILES: O=C(O)O.O=C([O-])C(=O)CBr.[Na+] [S-Glycolycin, Sodium 3-bromo-2-oxopropionate carbonic acid]
- sensitivity of HL-60/AR compared to parental HL-60 cells (HL-60/AR cells [1]): equally sensitive
- concentration that completely depleted cellular ATP [2]: 0.03 mM
- cells undergoing apoptosis (HL-60 cells [3]): > 90%
- reduced colony formation ([10]; 40 μM in combination with radiation (6 Gy), hypoxic conditions): more than 99.9%
- sensitivity under hypoxic conditions ([10]; drug alone, hypoxic versus normoxic): more sensitive
- concentration that completely depleted cellular ATP [4]: 0.03 mM
- concentration inducing severe ATP depletion ([4]; not at 10 μM): 30 to 50 µM
- killing CLL cells as measured by IC50 values, comparison (primary CLL cells): more potent than 3-BrPA
- change in BAD / phosphorylation at Ser112 ([11]; 10 μM): did not cause any significant change
- change in BAD / phosphorylation at Ser112 ([11]; 50 μM): almost complete dephosphorylation
- dephosphorylation of BAD, comparison ([11]; 3 h incubation): more effective than 3-BrPA
- sensitivity of Bcl-2 transfected cells compared to transfected control (Neo) [12]: remain sensitive
- sensitivity compared with p53-expressing colon cancer cells [13]: similarly sensitive
- pIC50 [14]: ~4.52
- pIC50 [15]: 5.00 to 5.30
- sensitivity under hypoxic versus normoxic conditions [16]: significantly more sensitive
- protection by glutamine from cytotoxic effect (parental HL-60 cells): partial protection
- protection by glutamine from cytotoxic effect [17]: no protection
- BAD dephosphorylation, comparison [18]: more active than 3-BrPA
